Measured values taken from patent US20240092784A1, “CONDENSED HETEROCYCLIC COMPOUND” (NISSAN CHEMICAL CORPORATION, priority 2020, published 2024).
Counter-ions that a name gives are not always drawn.

Biological target: human SPR (Homo sapiens (Human), UniProt P35270)
Assay: Evaluation Example 2: Measurement of human SPR inhibitory activity (seven concentrations, sepiapterin absorbance at 420 nm)
Assay type: biochemical
Settings: Evaluation Example 2, seven concentrations 0.14 nM to 100 nM, 240 minutes at room temperature, read-out: IC50
How it was run: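 Reactions ran 240 min at room temperature in 100 mM Tris-HCl pH 7.5 with 0.01% BSA. They contained tag-cleaved, E. coli-expressed full-length human SPR (diluted to 150 ng/mL), seven compound concentrations from 0.14 to 100 nM, and sepiapterin/NADPH added as a 120 μM/160 μM solution. Inhibition was calculated from sepiapterin absorbance at 420 nm.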

Chain of human SPR (P35270 whole entry): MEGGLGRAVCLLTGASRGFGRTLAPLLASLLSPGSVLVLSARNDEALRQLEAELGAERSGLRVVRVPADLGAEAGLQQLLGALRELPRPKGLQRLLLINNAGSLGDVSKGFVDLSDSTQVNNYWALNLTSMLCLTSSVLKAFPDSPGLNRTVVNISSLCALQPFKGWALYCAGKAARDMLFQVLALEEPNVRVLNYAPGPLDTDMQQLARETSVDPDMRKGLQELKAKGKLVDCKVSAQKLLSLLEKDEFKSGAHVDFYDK

Row | SMILES | IC50 [nM]
1 | CC(C)(C)Cn1c(=O)c(C(=O)NC2CC2)c(O)n2nc(N)c(/C=C/C3CCOCC3)c12 [Synthesis Example 433, (E)-2-Amino-N-cyclopropyl-7-hydroxy-4-neopentyl-5-oxo-3-(2-(tetrahydro-2H-pyran-4-yl)vinyl)-4,5-dihydropyrazolo[1,5-a]pyrimidine-6-carboxamide hydrochloride] | 0.97
2 | CC(C)Cn1c(=O)c(C(=O)NC2CC2)c(O)n2nc(N)c(/C=C/C3CCOCC3)c12 [Synthesis Example 434, (E)-2-Amino-N-cyclopropyl-7-hydroxy-4-isobutyl-5-oxo-3-(2-(tetrahydro-2H-pyran-4-yl)vinyl)-4,5-dihydropyrazolo[1,5-a]pyrimidine-6-carboxamide hydrochloride] | 1.4
3 | C=Cc1c(N)nn2c(O)c(C(=O)NC3CC3)c(=O)n(CC(C)C)c12 [Synthesis Example 435, 2-Amino-N-cyclopropyl-7-hydroxy-4-isobutyl-5-oxo-3-vinyl-4,5-dihydropyrazolo[1,5-a]pyrimidine-6-carboxamide] | 1.46
4 | CCc1c(N)nn2c(O)c(C(=O)NC3CC3)c(=O)n(CC(C)(C)C)c12 [Synthesis Example 436, 2-Amino-N-cyclopropyl-3-ethyl-7-hydroxy-4-neopentyl-5-oxo-4,5-dihydropyrazolo[1,5-a]pyrimidine-6-carboxamide hydrochloride] | 1.2
5 | Cc1c(N)nn2c(O)c(C(=O)NC3CC3)c(=O)n(CC(C)(C)C)c12 [Synthesis Example 437, 2-Amino-N-cyclopropyl-7-hydroxy-3-methyl-4-neopentyl-5-oxo-4,5-dihydropyrazolo[1,5-a]pyrimidine-6-carboxamide hydrochloride] | 1.38
6 | C/C=C/c1c(N)nn2c(O)c(C(=O)NC3CC3)c(=O)n(CC(C)(C)C)c12 [Synthesis Example 438, (E)-2-Amino-N-cyclopropyl-7-hydroxy-4-neopentyl-5-oxo-3-(prop-1-en-1-yl)-4,5-dihydropyrazolo[1,5-a]pyrimidine-6-carboxamide hydrochloride] | 0.98
7 | CC(C)Cn1c(=O)c(C(=O)NC2CC2)c(O)n2nc(N)c(/C=C/C(C)(C)C)c12 [Synthesis Example 439, (E)-2-Amino-N-cyclopropyl-3-(3,3-dimethylbut-1-en-1-yl)-7-hydroxy-4-isobutyl-5-oxo-4,5-dihydropyrazolo[1,5-a]pyrimidine-6-carboxamide hydrochloride] | 1.61
8 | CC(C)(C)Cn1c(=O)c(C(=O)NC2CC2)c(O)n2nc(N)c(/C=C/C3CC3)c12 [Synthesis Example 440, (E)-2-Amino-N-cyclopropyl-3-(2-cyclopropylvinyl)-7-hydroxy-4-neopentyl-5-oxo-4,5-dihydropyrazolo[1,5-a]pyrimidine-6-carboxamide hydrochloride] | 1.2
9 | CC(C)Cn1c(=O)c(C(=O)NC2CC2)c(O)n2nc(N)c(/C=C/C3CCCCC3)c12 [Synthesis Example 441, (E)-2-Amino-3-(2-cyclohexylvinyl)-N-cyclopropyl-7-hydroxy-4-isobutyl-5-oxo-4,5-dihydropyrazolo[1,5-a]pyrimidine-6-carboxamide] | 4.74
10 | CC(C)/C=C/c1c(N)nn2c(O)c(C(=O)NC3CC3)c(=O)n(CC(C)(C)C)c12 [Synthesis Example 442, (E)-2-Amino-N-cyclopropyl-7-hydroxy-3-(3-methylbut-1-en-1-yl)-4-neopentyl-5-oxo-4,5-dihydropyrazolo[1,5-a]pyrimidine-6-carboxamide hydrochloride] | 1.53
11 | Nc1nn2c(O)c(C(=O)NC3CC3)c(=O)n(CC3CCOCC3)c2c1/C=C/C1CCOCC1 [Synthesis Example 443, (E)-2-Amino-N-cyclopropyl-7-hydroxy-5-oxo-4-((tetrahydro-2H-pyran-4-yl)methyl)-3-(2-(tetrahydro-2H-pyran-4-yl)vinyl)-4,5-dihydropyrazolo[1,5-a]pyrimidine-6-carboxamide hydrochloride] | 0.65
12 | CC(C)(C)Cn1c(=O)c(C(=O)NC2CC2)c(O)n2nc(N)c(/C=C/C3CCOC3)c12 (stereo not shown) [Synthesis Example 444, (E)-2-Amino-N-cyclopropyl-7-hydroxy-4-neopentyl-5-oxo-3-(2-(tetrahydrofuran-3-yl)vinyl)-4,5-dihydropyrazolo[1,5-a]pyrimidine-6-carboxamide hydrochloride] | 0.98
13 | CC1(Cn2c(=O)c(C(=O)NC3CC3)c(O)n3nc(N)c(/C=C/C4CCOCC4)c23)CCOCC1 [Synthesis Example 445, (E)-2-Amino-N-cyclopropyl-7-hydroxy-4-((4-methyltetrahydro-2H-pyran-4-yl)methyl)-5-oxo-3-(2-(tetrahydro-2H-pyran-4-yl)vinyl)-4,5-dihydropyrazolo[1,5-a]pyrimidine-6-carboxamide hydrochloride] | 0.66
14 | COC[C@H]1CCCN1C(=O)/C=C/c1c(C)nn2c(O)c(C(=O)NC3CC3)c(=O)n(CC(C)C)c12 [Synthesis Example 612, (R,E)-N-Cyclopropyl-7-hydroxy-4-isobutyl-3-(3-(2-(methoxymethyl)pyrrolidin-1-yl)-3-oxoprop-1-en-1-yl)-2-methyl-5-oxo-4,5-dihydropyrazolo[1,5-a]pyrimidine-6-carboxamide] | 1.23
15 | COC[C@@H]1CCCN1C(=O)/C=C/c1c(C)nn2c(O)c(C(=O)NC3CC3)c(=O)n(CC(C)C)c12 [Synthesis Example 613, (S,E)-N-Cyclopropyl-7-hydroxy-4-isobutyl-3-(3-(2-(methoxymethyl)pyrrolidin-1-yl)-3-oxoprop-1-en-1-yl)-2-methyl-5-oxo-4,5-dihydropyrazolo[1,5-a]pyrimidine-6-carboxamide] | 1.04
16 | Cc1nn2c(O)c(C(=O)NC3CC3)c(=O)n(CC(C)C)c2c1/C=C/C(=O)N1CCC(C(F)(F)F)C1 (stereo not shown) [Synthesis Example 614, (E)-N-Cyclopropyl-7-hydroxy-4-isobutyl-2-methyl-5-oxo-3-(3-oxo-3-(3-(trifluoromethyl)pyrrolidin-1-yl)prop-1-en-1-yl)-4,5-dihydropyrazolo[1,5-a]pyrimidine-6-carboxamide] | 1.49
17 | Cc1nn2c(O)c(C(=O)NC3CC3)c(=O)n(CC(C)C)c2c1/C=C/C(=O)N1CCN(C2CC(F)(F)C2)CC1 [Synthesis Example 615, (E)-N-Cyclopropyl-3-(3-(4-(3,3-difluorocyclobutyl)piperazin-1-yl)-3-oxoprop-1-en-1-yl)-7-hydroxy-4-isobutyl-2-methyl-5-oxo-4,5-dihydropyrazolo[1,5-a]pyrimidine-6-carboxamide] | 1.4
18 | Cc1nn2c(O)c(C(=O)NC3CC3)c(=O)n(CC(C)C)c2c1/C=C/C(=O)N1[C@H](C)CC[C@H]1C [Synthesis Example 616, N-Cyclopropyl-3-((E)-3-((2R,5R)-2,5-dimethylpyrrolidin-1-yl)-3-oxoprop-1-en-1-yl)-7-hydroxy-4-isobutyl-2-methyl-5-oxo-4,5-dihydropyrazolo[1,5-a]pyrimidine-6-carboxamide] | 1.12
19 | Cc1nn2c(O)c(C(=O)NC3CC3)c(=O)n(CC(C)C)c2c1/C=C/C(=O)N1[C@@H](C)CC[C@@H]1C [Synthesis Example 617, N-Cyclopropyl-3-((E)-3-((2S,5S)-2,5-dimethylpyrrolidin-1-yl)-3-oxoprop-1-en-1-yl)-7-hydroxy-4-isobutyl-2-methyl-5-oxo-4,5-dihydropyrazolo[1,5-a]pyrimidine-6-carboxamide] | 1.04
20 | Cc1nn2c(O)c(C(=O)NC3CC3)c(=O)n(CC(C)C)c2c1/C=C/C(=O)N1[C@H](C)CC[C@@H]1C [Synthesis Example 618, N-Cyclopropyl-3-((E)-3-(cis-2,5-dimethylpyrrolidin-1-yl)-3-oxoprop-1-en-1-yl)-7-hydroxy-4-isobutyl-2-methyl-5-oxo-4,5-dihydropyrazolo[1,5-a]pyrimidine-6-carboxamide] | 1.8
21 | Cc1nn2c(O)c(C(=O)NC3CC3)c(=O)n(CC(C)C)c2c1/C=C/C(=O)N1CCCC1C1CC1 (stereo not shown) [Synthesis Example 619, (E)-N-Cyclopropyl-3-(3-(2-cyclopropylpyrrolidin-1-yl)-3-oxoprop-1-en-1-yl)-7-hydroxy-4-isobutyl-2-methyl-5-oxo-4,5-dihydropyrazolo[1,5-a]pyrimidine-6-carboxamide] | 1.58
22 | COC[C@H]1CCN(C(=O)/C=C/c2c(C)nn3c(O)c(C(=O)NC4CC4)c(=O)n(CC(C)C)c23)C1 [Synthesis Example 620, (S,E)-N-Cyclopropyl-7-hydroxy-4-isobutyl-3-(3-(3-(methoxymethyl)pyrrolidin-1-yl)-3-oxoprop-1-en-1-yl)-2-methyl-5-oxo-4,5-dihydropyrazolo[1,5-a]pyrimidine-6-carboxamide] | 1.17
23 | COC[C@@H]1CCN(C(=O)/C=C/c2c(C)nn3c(O)c(C(=O)NC4CC4)c(=O)n(CC(C)C)c23)C1 [Synthesis Example 621, (R,E)-N-Cyclopropyl-7-hydroxy-4-isobutyl-3-(3-(3-(methoxymethyl)pyrrolidin-1-yl)-3-oxoprop-1-en-1-yl)-2-methyl-5-oxo-4,5-dihydropyrazolo[1,5-a]pyrimidine-6-carboxamide] | 1.42
24 | Cc1nn2c(O)c(C(=O)NC3CC3)c(=O)n(CC(C)C)c2c1/C=C/C(=O)N1CCC(C(F)F)C1 (stereo not shown) [Synthesis Example 622, (E)-N-Cyclopropyl-3-(3-(3-(difluoromethyl)pyrrolidin-1-yl)-3-oxoprop-1-en-1-yl)-7-hydroxy-4-isobutyl-2-methyl-5-oxo-4,5-dihydropyrazolo[1,5-a]pyrimidine-6-carboxamide] | 1.03
25 | Cc1nn2c(O)c(C(=O)NC3CC3)c(=O)n(CC(C)C)c2c1/C=C/C(=O)N1CC[C@H](C(C)(C)O)C1 [Synthesis Example 623, (S,E)-N-Cyclopropyl-7-hydroxy-3-(3-(3-(2-hydroxypropan-2-yl)pyrrolidine-1-yl)-3-oxoprop-1-en-1-yl)-4-isobutyl-2-methyl-5-oxo-4,5-dihydropyrazolo[1,5-a]pyrimidine-6-carboxamide] | 1.27
